The record followed here is patent US20200131156A1, “ARYLSULFONYLPYROLECARBOXAMIDE DERIVATIVES AS Kv3 POTASSIUM CHANNEL ACTIVATORS” (H. Lundbeck A/S, priority 2018, published 2020).

This test deals with T1, human Kv3.2 (Homo sapiens, UniProt Q96PR1).
T1 construct: expressed in transfected cells
T1 sequence (Q96PR1 1-638): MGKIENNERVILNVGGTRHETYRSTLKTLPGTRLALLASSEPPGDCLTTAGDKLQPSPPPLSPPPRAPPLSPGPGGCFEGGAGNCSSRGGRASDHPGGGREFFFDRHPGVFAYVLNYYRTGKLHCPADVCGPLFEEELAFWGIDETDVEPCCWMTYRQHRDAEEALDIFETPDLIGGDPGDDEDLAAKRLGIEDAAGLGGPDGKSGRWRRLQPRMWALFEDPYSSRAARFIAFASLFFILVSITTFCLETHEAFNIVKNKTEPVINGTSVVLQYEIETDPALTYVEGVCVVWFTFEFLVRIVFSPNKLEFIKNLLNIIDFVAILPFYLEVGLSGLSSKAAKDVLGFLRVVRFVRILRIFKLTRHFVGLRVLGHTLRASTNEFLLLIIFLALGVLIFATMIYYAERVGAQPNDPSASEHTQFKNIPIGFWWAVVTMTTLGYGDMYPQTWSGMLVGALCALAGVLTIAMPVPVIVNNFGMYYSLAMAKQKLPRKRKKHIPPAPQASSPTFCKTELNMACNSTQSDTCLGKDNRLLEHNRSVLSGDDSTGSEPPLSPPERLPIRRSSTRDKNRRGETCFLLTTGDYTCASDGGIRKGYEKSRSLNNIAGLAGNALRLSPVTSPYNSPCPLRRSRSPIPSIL
Kind of test: Manual patch clamp electrophysiology, HEK-293 cells stably expressing human Kv3.2. It is filed as cell-based. The note with it: for hKv3.2 ECΔ30% increase: concentration increasing current by 30% at the −10 mV step; for hKv3.2 ECΔ5 mV: concentration that shifts activation threshold by 5 mV. The procedure: Manual Patch Clamp Electrophysiological Evaluation, hKv3.1, hKv3.2, hKv3.3, hKv3.4:
HEK-293 cells stably expressing human Kv3.1b, Kv3.2, Kv3.3 or Kv3.4 were used for the experiments.
Kv3.1b, Kv3.2: Cells were cultured in MEM medium supplemented with 10% Fetal Bovine Serum, 1% Penicillin/Streptomycin, 2 mM glutamine and 0.6 mg/mL geneticin. Cells were grown to 80-90% confluency at 37° C. and 5% CO2 Kv3.3 or Kv3.4: Cells were cultured in DMEM medium supplemented with 10% Fetal Bovine Serum, 500 ug/mL Geneticidin and 1% Penicillin/Streptomycin. Cells were grown to 80-90% confluency at 37° C. and 5% CO2.
On the day of the experiment the cells were detached by TrypLE and resuspended in culture medium. Cells were centrifuged, media removed and the cells were resuspended in extracellular buffer containing (in mM): 130 Na-gluconate, 20 NaCl, 4 KCl, 1 MgCl2, 1.8 CaCl2, 10 HEPES and 5 glucose, pH 7.3 adjusted with NaOH, 310-320 mOsm
Patch-clamp recordings were performed using a manual patch-clamp system (Axon Multiclamp 700B, Digidata 1440, pCLAMP 10, Molecular Devices Corporation) with a fast perfusion system (RSC-160 Rapid solution Changer, BioLogic). Whole-cell recordings were carried out using an intracellular solution containing (in mM): 100 K-gluconate, 40 KCl, 10 HEPES, 1 EGTA, 1 MgCl2, pH 7.2 adjusted with KOH, 290-300 mOsm. Cell membrane potentials were held at −80 mV and current voltage-relationship was generated by voltage steps (50 ms duration) from −100 mV to +10 mV (in 10 mV increments) and then back to −100 mV for 50 ms, with inter-sweep interval of 3 s. The peak current amplitude of −10 mV was monitored until stable (<5% change) by using one step voltage protocol. One IV protocol was run as baseline, then compound perfusion was stared and peak current stability was monitored with single step protocol prior to the IV protocol. Single concentrations were measured per cell. Acceptable cells had seal resistance >500 MOhm, Access resistance <10 MOhm, and leak current <200 pA.
Data analysis was performed using Clampfit (V10.2) in combination with Microsoft Excel™ (Redmond, Wash., USA). Current voltage relationships were plotted from the peak current (baseline subtracted) at the individual voltage steps normalized to the vehicle addition at 10 mV. The voltage threshold for channel activation was defined as 5% activation of the peak current at 10 mV in presence of vehicle. […] The concentration needed to shift the threshold 5 mV was readout from this curve (ECΔ5 mV), as well as the ability to increase the peak current at the −10 mV step (EC30% increase). […]
In general terms: In patch-clamp work, channel activity is measured electrically.

Take `Cc1ccc(S(=O)(=O)n2ccc(C(=O)NCc3ncco3)c2)cc1` [Compound 86, 1-(4-methylbenzene-1-sulfonyl)-N-[(1,3-oxazol-2-yl)methyl]-1H-pyrrole-3-carboxamide]: the “hKv3.2 ECΔ30% increase” value is over 30 µM and the “hKv3.2 ECΔ5 mV” value came to 6.0 µM.
For `Cc1cnc(CNC(=O)c2ccn(S(=O)(=O)c3ccc(F)cc3C)c2)cn1` [Compound 90, 1-(4-fluoro-2-methylbenzene-1-sulfonyl)-N-[(5-methylpyrazin-2-yl)methyl]-1H-pyrrole-3-carboxamide], in that order: 8.2 µM and 1.5 µM.
